This is an account of results in patent US12310929B2, “Use of rasagiline for the treatment of restless legs syndrome” (TEVA PHARMACEUTICAL INDUSTRIES, LTD., priority 2006, dated 2025).

The subject of assay [1] is RLS. The settings on record: treatment of RLS; cited from earlier work.
The test system of assay [2] is 6-hydroxydopamine lesioned rats. To be noted: treated lesioned rats compared with untreated lesioned rats. The protocol: 6-hydroxydopamine is an agent that selectively disrupts or destroys catecholaminergic systems. Thus, stereotaxic bilateral 6-hydroxydopamine lesions into the nucleus of dopaminergic diencephalic spinal neurons (A11) are performed to effect behavior consistent, although not specific, with what would be expected in a rat model of RLS. (Ondo W. G. et al., Clinical Correlates of 6-Hydroxydopamine Injections into A11 Dopaminergic Neurons in Rats: A Possible Model for Restless Leg Syndrome, Mov. Disord., 2000, 15(1):154-8)

Take `Clc1cccc(Cl)c1N=C1NCCN1` [Clonidine]: in assay [1], the “quality of sleep, frequency of waking up, periodic leg movement during sleep” value is “no effect” and the soporiferous latency result is “reduced”.

`C#CCN[C@@H]1CCc2ccccc21.CS(=O)(=O)O` [R(+)PAI mesylate, R(+)-N-propargyl-1-aminoindan mesylate]: in assay [2], the “number of standing episodes” value was “fewer standing episodes” and the total standing time entry is listed as “less total standing time”.
